Counter-ions that a name gives are not always drawn. Like-named read-outs stand apart in the source and are kept apart here.
What was measured:
human CYP2C9 [1] = target: T1, human CYP2C9 (Homo sapiens, UniProt P11712); assay: biochemical; conditions: for AC50: CYP2C9 AC50 (half-maximal activity concentration)
human CYP2C19 = human CYP2C19 (Homo sapiens, UniProt P33261); assay: biochemical; conditions: for AC50: CYP2C19 AC50 (half-maximal activity concentration)
human CYP2D6 [2] = target: T2, human CYP2D6 (Homo sapiens, UniProt P10635)
T2 sequence (P10635 whole entry): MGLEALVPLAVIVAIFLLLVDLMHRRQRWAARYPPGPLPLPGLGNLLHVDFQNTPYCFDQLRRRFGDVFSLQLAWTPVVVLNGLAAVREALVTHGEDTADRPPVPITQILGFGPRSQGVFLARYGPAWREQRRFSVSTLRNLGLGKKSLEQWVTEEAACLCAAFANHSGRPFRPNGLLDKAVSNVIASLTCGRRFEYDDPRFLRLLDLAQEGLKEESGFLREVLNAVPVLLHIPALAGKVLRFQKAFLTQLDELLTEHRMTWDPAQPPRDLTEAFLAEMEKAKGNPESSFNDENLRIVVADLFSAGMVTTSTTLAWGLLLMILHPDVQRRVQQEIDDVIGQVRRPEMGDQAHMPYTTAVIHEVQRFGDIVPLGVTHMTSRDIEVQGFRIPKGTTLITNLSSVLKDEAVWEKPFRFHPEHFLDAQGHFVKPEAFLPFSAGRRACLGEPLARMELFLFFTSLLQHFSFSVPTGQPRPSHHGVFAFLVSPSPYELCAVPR

human CYP1A2 = target: T3, human CYP1A2 (Homo sapiens, UniProt P05177); assay: biochemical; conditions: for AC50: CYP1A2 AC50 (half-maximal activity concentration)
T3 sequence (P05177 1-516): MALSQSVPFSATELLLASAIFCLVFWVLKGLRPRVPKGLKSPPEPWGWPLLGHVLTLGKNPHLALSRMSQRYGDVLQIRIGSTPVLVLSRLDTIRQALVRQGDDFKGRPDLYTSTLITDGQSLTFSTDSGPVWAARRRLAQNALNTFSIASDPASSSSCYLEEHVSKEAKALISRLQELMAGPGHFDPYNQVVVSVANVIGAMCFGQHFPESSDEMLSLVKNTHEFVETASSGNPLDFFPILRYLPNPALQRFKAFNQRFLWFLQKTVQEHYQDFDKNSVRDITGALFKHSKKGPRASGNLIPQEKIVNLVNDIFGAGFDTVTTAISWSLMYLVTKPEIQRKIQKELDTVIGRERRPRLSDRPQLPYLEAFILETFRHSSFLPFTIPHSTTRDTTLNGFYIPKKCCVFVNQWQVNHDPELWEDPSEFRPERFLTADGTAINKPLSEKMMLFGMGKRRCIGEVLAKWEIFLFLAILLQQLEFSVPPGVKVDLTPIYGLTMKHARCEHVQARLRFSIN

CYP3A4 [3] = target: T4, CYP3A4 (Homo sapiens, UniProt P08684); assay: biochemical; conditions: for AC50: CYP3A4 AC50 (half-maximal activity concentration)
T4 sequence (P08684 whole entry): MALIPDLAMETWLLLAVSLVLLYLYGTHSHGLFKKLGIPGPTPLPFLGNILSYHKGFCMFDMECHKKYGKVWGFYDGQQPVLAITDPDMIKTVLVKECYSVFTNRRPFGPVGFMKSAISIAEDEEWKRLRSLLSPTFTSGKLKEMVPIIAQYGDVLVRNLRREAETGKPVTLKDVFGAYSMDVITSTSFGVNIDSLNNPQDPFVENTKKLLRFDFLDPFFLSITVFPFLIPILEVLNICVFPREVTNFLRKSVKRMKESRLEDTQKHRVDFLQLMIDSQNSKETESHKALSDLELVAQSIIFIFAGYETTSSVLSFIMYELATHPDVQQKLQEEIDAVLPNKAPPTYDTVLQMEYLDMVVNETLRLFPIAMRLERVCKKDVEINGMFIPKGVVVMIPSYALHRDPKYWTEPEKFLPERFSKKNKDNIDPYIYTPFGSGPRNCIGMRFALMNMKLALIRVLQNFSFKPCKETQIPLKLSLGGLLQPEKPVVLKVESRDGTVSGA

human CYP2D6 [4] = target: T2, human CYP2D6; assay: biochemical
[5] = target: Photinus pyralis (firefly) luciferase (Photinus pyralis, UniProt P08659); assay: biochemical; assay type: biochemical
Chain of Photinus pyralis (firefly) luciferase (P08659 whole entry): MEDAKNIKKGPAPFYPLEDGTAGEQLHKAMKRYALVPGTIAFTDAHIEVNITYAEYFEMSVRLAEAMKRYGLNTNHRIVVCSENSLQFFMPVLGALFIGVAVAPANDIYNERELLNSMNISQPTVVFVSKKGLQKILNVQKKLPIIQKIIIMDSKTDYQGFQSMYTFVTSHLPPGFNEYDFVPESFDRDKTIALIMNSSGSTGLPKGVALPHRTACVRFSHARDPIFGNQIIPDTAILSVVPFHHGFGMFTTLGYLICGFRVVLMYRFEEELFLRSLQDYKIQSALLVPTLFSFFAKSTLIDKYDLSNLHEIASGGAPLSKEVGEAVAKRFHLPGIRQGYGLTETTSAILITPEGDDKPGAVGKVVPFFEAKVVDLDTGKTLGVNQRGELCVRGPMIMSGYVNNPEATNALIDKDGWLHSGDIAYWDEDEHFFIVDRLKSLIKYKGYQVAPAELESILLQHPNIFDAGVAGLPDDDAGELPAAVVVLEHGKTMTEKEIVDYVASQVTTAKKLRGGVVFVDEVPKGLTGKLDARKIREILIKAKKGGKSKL

CYP3A4 [6] = target: T4, CYP3A4
human CYP2C9 [7] = target: T1, human CYP2C9
[8] = CYP2C9 IC50 (half-maximal inhibitory concentration)
[9] = CYP2C19 IC50 (half-maximal inhibitory concentration)
[10] = CYP1A2 IC50 (half-maximal inhibitory concentration)
[11] = CYP3A4 IC50 (half-maximal inhibitory concentration)
[12] = CYP2D6 IC50 (half-maximal inhibitory concentration)

Chain of human CYP2C19 (P33261 whole entry): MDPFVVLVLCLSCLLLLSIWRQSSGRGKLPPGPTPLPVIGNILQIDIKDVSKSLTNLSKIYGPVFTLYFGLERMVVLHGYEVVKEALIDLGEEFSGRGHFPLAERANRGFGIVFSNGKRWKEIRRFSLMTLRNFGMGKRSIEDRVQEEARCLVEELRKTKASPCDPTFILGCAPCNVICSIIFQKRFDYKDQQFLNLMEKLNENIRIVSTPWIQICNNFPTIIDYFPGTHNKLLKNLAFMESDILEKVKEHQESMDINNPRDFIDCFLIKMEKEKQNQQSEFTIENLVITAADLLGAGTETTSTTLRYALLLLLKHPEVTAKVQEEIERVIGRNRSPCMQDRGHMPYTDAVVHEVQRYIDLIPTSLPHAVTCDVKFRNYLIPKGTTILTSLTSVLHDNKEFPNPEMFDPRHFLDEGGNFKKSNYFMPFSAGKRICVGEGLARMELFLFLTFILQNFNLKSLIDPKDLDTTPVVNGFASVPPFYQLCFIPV
T1 sequence (P11712 whole entry): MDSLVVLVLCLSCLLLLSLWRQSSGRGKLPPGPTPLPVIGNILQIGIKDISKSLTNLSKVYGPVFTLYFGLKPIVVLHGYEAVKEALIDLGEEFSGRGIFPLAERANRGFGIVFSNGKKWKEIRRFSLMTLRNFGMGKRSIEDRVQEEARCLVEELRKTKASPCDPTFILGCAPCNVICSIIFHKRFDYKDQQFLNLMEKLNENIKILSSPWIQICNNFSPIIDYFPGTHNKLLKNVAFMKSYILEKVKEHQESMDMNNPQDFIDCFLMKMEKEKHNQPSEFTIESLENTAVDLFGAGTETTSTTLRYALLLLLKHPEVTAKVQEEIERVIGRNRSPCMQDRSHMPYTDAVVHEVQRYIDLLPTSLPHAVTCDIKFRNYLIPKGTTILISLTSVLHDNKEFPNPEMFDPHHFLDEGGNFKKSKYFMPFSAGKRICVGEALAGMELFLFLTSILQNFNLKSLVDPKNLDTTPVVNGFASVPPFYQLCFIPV

In the case of `COc1ccc(S(=O)(=O)N2C(=O)[C@@](c3ccccc3OC)(N3C[C@H](O)C[C@H]3C(=O)N(C)C)c3cc(Cl)ccc32)c(OC)c1` [Nelivaptan], the IC50 (human CYP2C9 [1]) is reported as 44.5 ± 24.6 µM, the IC50 (human CYP2C19) is reported as 27.6 ± 19.5 µM and the “CYP2D6 Efficacy” value (human CYP2D6 [2]; human, 1 h) is reported as 55.12 ± 29.45 (-53 ± 5) %. For the same compound, the IC50 (human CYP1A2) was 53.3 ± 25 µM, the IC50 (CYP3A4 [3]) was 0.07 ± 0.02 µM and the IC50 (human CYP2D6 [4]) was 55.1 ± 29.4 µM. For the same compound, the “Luciferase IC50 (half-maximal inhibitory concentration)” value [5] was “Inactive”.
For `CCOC(=O)C(SP(=S)(OC)OC)c1ccccc1` (centres unmarked) [Phenthoate], the IC50 (human CYP2C9 [1]) was 1.28 µM, the IC50 (human CYP2C19; CYP2C19 IC50) was 0.3 µM and the IC50 (human CYP1A2; CYP1A2 IC50) was 3.79 µM. For the same compound, the IC50 (CYP3A4 [3]; CYP3A4 IC50) was 3.33 µM, the IC50 (human CYP2D6 [4]) was 49.3 µM and the “Luciferase IC50” value [5] was “Inactive”.
Work on `Clc1ccc(C2(Cn3cncn3)CC(Br)CO2)c(Cl)c1` (centres unmarked) [Bromuconazole] yielded an IC50 (human CYP2C9 [1]; [8]) of 3.35 µM, an IC50 (human CYP2C19; [9]) of 0.12 µM and an IC50 (human CYP1A2; [10]) of 21.7 µM. For the same compound, the IC50 (CYP3A4 [3]; [11]) was 0.08 µM, the IC50 (human CYP2D6 [4]; [12]) was 21 µM and the “Luciferase IC50 (half-maximal inhibitory concentration)” value [5] was “Inactive”.
Compound `CC1COC(Cn2cncn2)(c2ccc(Oc3ccc(Cl)cc3)cc2Cl)O1` (centres unmarked) [Difenoconazole] has an IC50 (human CYP2C9 [1]; [8]) of 1.22 µM, an IC50 (human CYP2C19; [9]) of 0.08 µM and an IC50 (human CYP1A2; [10]) of 27.4 µM. For the same compound, the IC50 (CYP3A4 [3]; [11]) was 0.08 µM, the IC50 (human CYP2D6 [4]; [12]) was 34.4 µM and the “Luciferase IC50 (half-maximal inhibitory concentration)” value [5] was “Inactive”.
In the case of `CC(C(O)c1ccccc1)N(C)CCOC(c1ccccc1)c1ccccc1` (centres unmarked) [Difeterol], the IC50 (human CYP2C9 [1]) is reported as 16.8 ± 1.09 µM, the IC50 (human CYP2C19) is reported as 7.12 ± 1.98 µM and the IC50 (human CYP1A2) is reported as 23.5 ± 5.69 µM. For the same compound, the IC50 (CYP3A4 [3]) was 0.62 ± 0.07 µM, the IC50 (human CYP2D6 [4]) was 0.11 ± 0.06 µM and the “Luciferase IC50 (half-maximal inhibitory concentration)” value [5] was “Inactive”.
`CC(O)(c1ccc(Cl)cc1)c1ccc(Cl)cc1` [Chlorfenethol] gave an AC50 (human CYP2C9 [1]) of 7.68 µM, an IC50 (human CYP2C9 [1]; [8]) of 7.68 µM and an AC50 (human CYP2C19) of 0.12 µM. For the same compound, the IC50 (human CYP2C19; [9]) was 0.12 µM, the “CYP3A4 IC50 (half-maximal inhibitory concentration)” value (CYP3A4 [6]) was 11.76 ± 1.5 (55 ± 6) µM and the AC50 (human CYP1A2) was 30.6 µM. For the same compound, the IC50 (human CYP1A2; [10]) was 30.6 µM, the AC50 (CYP3A4 [3]) was 11.8 µM and the AC50 (human CYP2D6 [4]; CYP2D6 AC50 (half-maximal activity concentration)) was 55.5 µM. For the same compound, the IC50 (human CYP2D6 [4]; [12]) was 55.5 µM and the “Luciferase IC50 (half-maximal inhibitory concentration)” value [5] was “Inactive”.
With `C=CCOc1cc(Cl)ccc1C(=O)NCCN(CC)CC` [Alloclamide] the IC50 (human CYP2C19) was 26.8 µM, the “CYP2C9 IC50 (half-maximal inhibitory concentration)” value (human CYP2C9 [7]) was “Inactive” and the IC50 (human CYP1A2) was 3.34 µM. The IC50 (CYP3A4 [3]) was 16.8 µM, the IC50 (human CYP2D6 [4]) was 0.28 µM and the “Luciferase IC50 (half-maximal inhibitory concentration)” value [5] was “Inactive”.
Compound `CCN(CC)C(=O)[C@@H]1C=C2c3cccc4[nH]cc(c34)C[C@H]2N(C)C1` [Lysergide] has an IC50 (human CYP2C9 [1]; CYP2C9 IC50) of 72.9 µM, an IC50 (human CYP2C19; CYP2C19 IC50) of 156 µM and an IC50 (human CYP1A2; CYP1A2 IC50) of 151 µM. The IC50 (CYP3A4 [3]; CYP3A4 IC50) was 71.8 µM, the IC50 (human CYP2D6 [4]; CYP2D6 IC50) was 0.43 µM and the “Luciferase IC50” value [5] was “Inactive”.
In the case of `CN(C)c1ccc(C(=N)c2ccc(N(C)C)cc2)cc1` [Auramine hydrochloride], the IC50 (human CYP2C19; [9]) is reported as 21 µM, the “CYP2C9 IC50 (half-maximal inhibitory concentration)” value (human CYP2C9 [7]) is reported as “Inactive” and the IC50 (human CYP1A2; [10]) is reported as 25.3 µM. For the same compound, the IC50 (CYP3A4 [3]; [11]) was 39.3 µM, the IC50 (human CYP2D6 [4]; [12]) was 0.08 µM and the “Luciferase IC50 (half-maximal inhibitory concentration)” value [5] was “Inactive”.
In the case of `CCOC(=O)C(O)(c1ccc(Cl)cc1)c1ccc(Cl)cc1` [Chlorobenzilate], the IC50 (human CYP2C9 [1]) is reported as 7.68 µM, the AC50 (human CYP2C9 [1]) is reported as 7.68 µM and the AC50 (human CYP2C19) is reported as 0.39 µM. For the same compound, the IC50 (human CYP2C19; [9]) was 0.39 µM, the “CYP2D6 AC50 (half-maximal activity concentration)” value (human CYP2D6 [2]) was “Inconclusive inhibitor” and the “CYP3A4 IC50 (half-maximal inhibitory concentration)” value (CYP3A4 [6]) was 9.23 ± 2.97 (118 ± 20) µM. It also gave an AC50 (human CYP1A2) of 44.5 µM, an IC50 (human CYP1A2; [10]) of 44.5 µM and an AC50 (CYP3A4 [3]) of 9.23 µM. The IC50 (human CYP2D6 [4]) was 46.2 µM and the “Luciferase IC50 (half-maximal inhibitory concentration)” value [5] was “Inactive”.
In the case of `CN(C)c1ccc(Cc2ccc(N(C)C)cc2)cc1` [4,4'-Methylenebis(N,N-dimethylaniline)], the IC50 (human CYP2C9 [1]; [8]) is reported as 25.5 µM, the IC50 (human CYP2C19; [9]) is reported as 0.22 µM and the IC50 (human CYP1A2; [10]) is reported as 4.55 µM. The IC50 (CYP3A4 [3]; [11]) was 19.9 µM, the IC50 (human CYP2D6 [4]; [12]) was 40.1 µM and the “Luciferase IC50 (half-maximal inhibitory concentration)” value [5] was “Inactive”.
`CCCCOCN(C(=O)CCl)c1c(CC)cccc1CC` [Butachlor] showed an IC50 (human CYP2C9 [1]; [8]) of 5.09 µM, an IC50 (human CYP2C19; [9]) of 0.83 µM and an IC50 (human CYP1A2; [10]) of 51.6 µM. For the same compound, the IC50 (CYP3A4 [3]; [11]) was 6.9 µM, the IC50 (human CYP2D6 [4]; [12]) was 50.9 µM and the “Luciferase IC50 (half-maximal inhibitory concentration)” value [5] was “Inactive”.
`CCCCC(O)(Cn1cncn1)c1ccc(Cl)cc1Cl` (centres unmarked) [Hexaconazole] was tested, and the IC50 (human CYP2C9 [1]; [8]) was 0.52 µM, the IC50 (human CYP2C19; [9]) was 0.3 µM and the IC50 (human CYP1A2; [10]) was 37 µM. The IC50 (CYP3A4 [3]; [11]) was 0.11 µM, the IC50 (human CYP2D6 [4]; [12]) was 33 µM and the “Luciferase IC50 (half-maximal inhibitory concentration)” value [5] was “Inactive”.

Reference: PMC12155096 (International Journal of Molecular Sciences, 2025)
